Results taken from patent US20250109140A1, “5-[5-(PIPERIDIN-4-YL)THIENO[3,2-C]PYRAZOL-2-YL]INDAZOLE DERIVATIVES AND RELATED COMPOUNDS AS MODULATORS FOR SPLICING NUCLEIC ACIDS AND FOR THE TREATMENT OF PROLIFERATIVE DISEASES” (REMIX THERAPUTICS INC., priority 2022, published 2025).
Like-named read-outs stand apart in the source and are kept apart here.

Assays:
[1] = system: Target C; experiment: HiBiT protein abundance assay, Target C (K562 HiBiT knock-in cells); type: cell-based, human; conditions: 24 hours treatment
Description: • Promega Nano-Glo HiBiT Lytic Detection System (cat #N3030) • Corning 384-well TC-treated microplates (cat #3570) • Synthego Engineered Cells Knock-In Clones
(§1) Cells were maintained in IMDM with 10% FBS. Before the assay, cells were diluted with […] growth media (IMDM+[…] media) and were seeded in a 384-well plate at a density of 10000 cells/well (for each cell line listed in Table 6). Each compound was prepared as a 10-point 3-fold serial dilution in DMSO with the top dose at a final concentration of […] in the well. Unmodified K562 cells were added at the previously specified density with DMSO to serve as an assay baseline and positive control (PC) and DMSO only with the respective modified cell lines was added to the negative control (NC) columns. Final DMSO concentration was kept at or below 0.25%. Treated cell plates were placed in an incubator at 37° C. with […] for 24 hours. After 24 hours, 25 μL of Complete HiflitLytic reagent was added to each well at room temperature (e.g. one plate requiring 10 mL Lytic Buffer, 100 μL LgBiT Protein, 200 μL Lytic Substrate), shaken for 5 minutes at 600 RPM, then left to sit for 10 minutes for signal to stabilize before reading on a Spark Cyto plate reader (Tecan) with a 500 ms measurement time.
(§2) To determine compound effects on protein abundance of each target in Table 6, the percent response for each respective cell line was calculated at each compound concentration as follows:
(§3) For the normalized response at each concentration, a four-parameter logistical regression was fit to the data and the response was interpolated at the 50% value to determine a concentration for protein abundance at 50% (IC50) the untreated control.

[2] = system: HTT mRNA; experiment: Splicing RT-qPCR assay, HTT canonical (CJ) and alternative (AJ) junction mRNA; type: cell-based; conditions: Homo sapiens; for EC50: AC50 = 50% response in AJ mRNA increase
Outline: (§4)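 A673/K562; 11-pt 3-fold dil., top 10 uM final, ≤0.25% DMSO; 24 h, 37 °C, 5% CO2. Lysis, then RT-qPCR of CJ/AJ isoforms, ≥duplicate. ΔCt vs housekeeper (GAPDH/GUSB/PPIA), ΔΔCt vs DMSO, RQ = 2^(−ΔΔCt), expressed as % response.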

[3] = system: HiBiT-tagged MYB protein; experiment: HiBiT protein abundance assay, MYB (K562 HiBiT knock-in cells); type: cell-based, human; conditions: 24 hours treatment
Description: (§5) Compounds described herein were used to screen for effects on quantitative protein abundance using a HiBit assay system (Promega). Quantitative protein abundance was determined by measuring the protein levels of HiBit-tagged protein targets expressed in cell culture via luminescence using the Nano-Glo HiBiT Lytic Detection System, which uses a split complementation assay format to reconstitute NanoBiT enzyme to generate a luminescent signal. A protein abundance assay was developed such that endogenous protein targets could be modified with the HiBiT peptide tag and their abundance could be assessed after compound treatment. Briefly, K562 cell lines containing a HiBiT-modification were treated with various compounds described herein (e.g., compounds of Formulas (I), or (II)). After treatment for 24 hours, the protein abundance of a specific target was determined by measuring luminescence.
as §1, §2, §3

[4] = system: K562 (human chronic myelogenous leukemia) cells; experiment: Cell viability, Cell Titer Glo 2.0 assay, K562 cells; type: cell-based; conditions: 72 hours
Description: Compounds described herein were screened for toxicity in K562 (human chronic myelogenous leukemia) and SH-SY5Y (human neuroblastoma) cells using a Cell Titer Glo 2.0 assay.
Cells were plated at 500 cells/well (K562 cells) in 45 μL of IMDM supplemented with 10% FBS in a 384-well opaque plate. Wells containing only medium were used as a blank control. Test compounds (e.g., compounds of Formula (I), (III), (IV), (V), or (VI)) were first serially diluted in DMSO then diluted 1:100 with IMDM+10% FBS. The final concentration of DMSO was 0.1% in each well. The cells were incubated for 72 hours at 37° C. and 5% CO2 before assaying with Cell Titer Glo 2.0 reagent.

[5] = system: SMN2 mRNA; experiment: Splicing RT-qPCR gene panel, SMN2 canonical junction (CJ) mRNA; type: cell-based; conditions: Homo sapiens; Table 8; larger gene panel, decrease in CJ mRNA levels
Outline: as §4

[6] = system: Target C mRNA; experiment: Splicing RT-qPCR gene panel, Target C canonical junction (CJ) mRNA; type: cell-based; conditions: Homo sapiens; Table 8; larger gene panel, decrease in CJ mRNA levels
Outline: as §4

[7] = system: MYB mRNA; experiment: Splicing RT-qPCR assay, MYB canonical (CJ) and alternative (AJ) junction mRNA; type: cell-based; conditions: Homo sapiens; for EC50: AC50 = 50% response in AJ mRNA increase
Outline: as §4

[8] = system: HiBiT-tagged HTT protein; experiment: HiBiT protein abundance assay, HTT (K562 HiBiT knock-in cells); type: cell-based, human; conditions: 24 hours treatment
Description: as §5, §1, §2, §3

[9] = Table 7, RT-qPCR, A673 or K562 cells, 24 hours treatment
[10] = Table 7, IC50 = 50% response in CJ mRNA decrease, RT-qPCR, A673 or K562 cells, 24 hours treatment, read-out: HTT CJ
[11] = Table 8, larger gene panel, decrease in CJ mRNA levels, read-out: HTT CJ IC50
[12] = Table 7, IC50 = 50% response in CJ mRNA decrease, RT-qPCR, A673 or K562 cells, 24 hours treatment, read-out: MYB CJ
[13] = Table 8, larger gene panel, decrease in CJ mRNA levels, read-out: MYB CJ IC50

SMILES	IC50 [1] [µM]	EC50 [2, 9] [µM]	IC50 [2, 10] [µM]	IC50 [2, 11] [µM]	IC50 [3] [µM]	IC50 [4] [µM]	IC50 [5] [µM]	IC50 [6] [µM]	EC50 [7, 9] [µM]	IC50 [7, 12] [µM]	IC50 [7, 13] [µM]	IC50 [8] [µM]
COc1c(-c2nc3cn(C4CCNCC4)nc3s2)cc2cn(C)nc2c1C [Compound 1103]	1 to 10	1 to 10	1 to 10	1 to 10	1 to 10	1 to 10	1 to 10	1 to 10	1 to 10	1 to 10	1 to 10	1 to 10
Cn1cc2cc(-c3cc4cn(C5CCNCC5)nc4s3)cc(F)c2n1 [Compound 122, 7-fluoro-2-methyl-5-[2-(piperidin-4-yl)thieno[2,3-c]pyrazol-5-yl]indazole]	< 0.1	< 0.1	< 0.1	< 0.1	< 0.1	< 0.1	< 0.1	< 0.1	0.1 to 1	< 0.1	0.1 to 1	< 0.1
Cn1cc2cc(-c3cc4cn(C5CNC5)nc4s3)cc(F)c2n1 [Compound 184]	> 10	1 to 10	1 to 10	1 to 10	1 to 10	1 to 10	0.1 to 1	> 10	1 to 10	1 to 10	1 to 10	1 to 10
Cn1cc2cc(-c3cc4cn([C@@H]5CCNC[C@H]5O)nc4s3)cc(F)c2n1 [Compound 273]	> 10	1 to 10	> 10	> 10	> 10	1 to 10	0.1 to 1	> 10	1 to 10	> 10	> 10	1 to 10
Cc1cn2cc(-c3cc4cn(C5CCNCC5)nc4s3)cc(Cl)c2n1 [Compound 226]	< 0.1	< 0.1	< 0.1	< 0.1	0.1 to 1	0.1 to 1	< 0.1	0.1 to 1	0.1 to 1	0.1 to 1	0.1 to 1	< 0.1
Cn1cc2cc(-c3cc4cn(C5CCOCC5)nc4s3)cc(F)c2n1 [Compound 161, 7-fluoro-2-methyl-5-[2-(oxan-4-yl)thieno[2,3-c]pyrazol-5-yl]indazole]	> 10	> 10	> 10	> 10	> 10	> 10	> 10	> 10	> 10	> 10	> 10	> 10

The next lines start with the values.

IC50 [1] [µM]	EC50 [2, 9] [µM]	IC50 [2, 10] [µM]	IC50 [2, 11] [µM]	IC50 [3] [µM]	IC50 [4] [µM]	IC50 [5] [µM]	IC50 [6] [µM]	EC50 [7, 9] [µM]	IC50 [7, 12] [µM]	IC50 [7, 13] [µM]	IC50 [8] [µM]	SMILES
1 to 10	0.1 to 1	0.1 to 1	0.1 to 1	1 to 10	1 to 10	0.1 to 1	1 to 10	1 to 10	1 to 10	1 to 10	0.1 to 1	Cn1cc2cc(-n3cc4sc(C5CCNCC5)cc4n3)cc(F)c2n1 [Compound 105, 7-fluoro-2-methyl-5-[5-(piperidin-4-yl)thieno[3,2-c]pyrazol-2-yl]indazole]
1 to 10	1 to 10	1 to 10	1 to 10	1 to 10	1 to 10	0.1 to 1	> 10	1 to 10	> 10	1 to 10	1 to 10	Cc1nc2c(F)cc(-n3cc4sc(C5CCNCC5)cc4n3)cc2s1 [Compound 168]
